Reference: patent publication EP4711361A1, “NITROGEN-CONTAINING HETEROCYCLIC COMPOUND AND USE THEREOF” (Jiangsu Deyuan Pharmaceutical Co.,Ltd., priority 2023, dated 2024)

Legend:
human CYP11B1 = target: T1, human CYP11B1 (Homo sapiens, UniProt P15538); assay: In vitro activity assay of monoclonal cells overexpressing human CYP11B1; assay type: cell-based; settings: G402 cells overexpressing human CYP11B1; 1 µM 11-deoxycortisol, 16 hours; cortisol by LC-MS/MS
T1 construct: expressed in transfected cells; host or cells: human renal leiomyoma G402 cells (monoclonal)
T1 sequence (P15538 25-503): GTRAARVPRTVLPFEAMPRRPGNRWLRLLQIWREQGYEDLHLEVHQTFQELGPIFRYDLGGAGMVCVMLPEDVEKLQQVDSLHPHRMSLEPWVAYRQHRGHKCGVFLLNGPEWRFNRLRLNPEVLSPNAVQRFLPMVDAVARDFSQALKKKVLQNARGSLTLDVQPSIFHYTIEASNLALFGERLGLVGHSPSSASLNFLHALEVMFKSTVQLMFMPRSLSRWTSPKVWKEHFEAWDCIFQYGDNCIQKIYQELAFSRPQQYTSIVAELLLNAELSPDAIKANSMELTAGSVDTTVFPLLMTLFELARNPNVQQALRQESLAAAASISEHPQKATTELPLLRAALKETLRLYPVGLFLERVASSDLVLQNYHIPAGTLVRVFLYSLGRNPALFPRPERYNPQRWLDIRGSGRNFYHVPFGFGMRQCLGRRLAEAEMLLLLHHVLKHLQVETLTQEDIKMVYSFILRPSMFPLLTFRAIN
Procedure: The human renal leiomyoma G402 cell line overexpressing human CYP11B1 was selected to serve as a compound selectivity screening system.
Day 1: Cells were digested, and human renal leiomyoma G402 cells overexpressing CYP11B1 were resuspended to 1×10^5 cells/mL, with 100 µL seeded into a 96-well plate.
(§1) Day 3: The cell supernatant was collected and added to 200 µL of a methanol solution containing internal standards (internal standards: 35 ng/mL ketoprofen or 7.5 ng/mL carbamazepine or 5 ng/mL diphenhydramine or 10 ng/mL tolbutamide). The mixture was vortexed and centrifuged (4000×g, 4°C, 5 minutes). Then, 100 µL of the supernatant was taken and mixed with 100 µL of pure water.
Ratio = Cortisol peak area/Internal standard peak area [formula] Control activity% = (Ratiotestcompound/RatioDMSO) × 100% [formula]
(§2) "Ratio test compound" represents the Ratio values at different concentrations of the test compound.
(§3) "Ratio DMSO" represents the Ratio value without the addition of the test compound. • X = Log (compound concentration) • Y = Control activity%
The IC50 of the test compound was determined by fitting to a nonlinear regression equation using XLfit 5.5.0. Table 4: Results for in vitro activity assay of monoclonal cells overexpressing human CYP11B1

human CYP11B2 = target: T2, human CYP11B2 (Homo sapiens, UniProt P19099); assay: In vitro activity assay of monoclonal cells overexpressing human CYP11B2; assay type: cell-based; settings: G402 cells overexpressing human CYP11B2; 1 µM 11-deoxycorticosterone, 16 hours; aldosterone by LC-MS/MS
T2 construct: expressed in transfected cells; host or cells: human renal leiomyoma G402 cells (monoclonal)
T2 sequence (P19099 25-503): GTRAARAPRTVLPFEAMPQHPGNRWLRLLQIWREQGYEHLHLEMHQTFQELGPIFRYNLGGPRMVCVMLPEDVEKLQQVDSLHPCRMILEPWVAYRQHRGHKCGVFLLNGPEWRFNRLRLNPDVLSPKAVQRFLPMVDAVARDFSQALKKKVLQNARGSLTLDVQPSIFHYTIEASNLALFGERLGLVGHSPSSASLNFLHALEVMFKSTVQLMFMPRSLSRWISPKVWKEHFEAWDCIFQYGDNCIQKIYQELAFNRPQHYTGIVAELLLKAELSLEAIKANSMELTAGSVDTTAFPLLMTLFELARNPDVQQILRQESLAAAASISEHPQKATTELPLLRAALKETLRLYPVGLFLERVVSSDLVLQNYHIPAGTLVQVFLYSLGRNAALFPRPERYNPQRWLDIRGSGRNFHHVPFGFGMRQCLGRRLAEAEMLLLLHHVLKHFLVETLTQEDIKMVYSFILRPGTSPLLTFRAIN
Procedure: The human renal leiomyoma G402 cell line overexpressing human CYP11B2 was selected to serve as a compound activity screening system. Table 1: Cell and reagent information
2) Compound details: The test compound was prepared as a 10 µM working concentration using DMSO. 3) Experimental procedure
Day 1: Cells were digested, and human renal leiomyoma G402 cells overexpressing human CYP11B2 were resuspended to 1×10^5 cells/mL, with 100 µL seeded into a 96-well plate.
as §1
Ratio = Aldosterone peak area/Internal standard peak area [formula] Control activity% = (Ratiotestcompound/RatioDMSO) × 100% [formula]
as §2, §3
The IC50 of the test compound was determined by fitting to a nonlinear regression equation using XLfit 5.5.0. Table 3: Results for in vitro activity assay of monoclonal cells overexpressing human CYP11B2

MDR1-MDCKII cells = assay: Permeability test (MDR1-MDCKII monolayer, bidirectional transport); assay type: in vitro ADME; settings: 2 µM; for Efflux ratio (ER): ER = Papp (BA)/ Papp (AB), 150 min; for Apparent permeability coefficient (Papp (AB), 10^-6 cm/s): pH 7.40, 2.5 hours, A to B
Procedure: (§4) Experimental objective: The permeability and efflux ratio of the compound of the present disclosure were determined using the MDR1-MDCKII monolayer cell model to assess its membrane permeability and potential for P-gp-mediated efflux transport.
(§5) Experimental protocol: MDR1-MDCKII cells (obtained from the Netherlands Cancer Institute) were seeded in 96-well plates (obtained from Corning) at a cell density of 3.33 × 10^5 cells/mL and cultured for 4 to 7 days to form confluent cell monolayers. Hank's balanced salt solution containing 10 mM HEPES (pH 7.40) was used as the transport buffer. The test compound was evaluated for bidirectional transport at a concentration of 2 µM, with the DMSO concentration in the incubation system maintained below 1%. After adding the samples, the cell plate was incubated at 37±1°C, 5% CO2, and saturated humidity for 2.5 hours. All samples were quantitatively analyzed using the LC-MS/MS method. The apparent permeability coefficient (Papp, cm/s) and efflux ratio (ER) were calculated using the following formula. Apparent permeability coefficient (Papp, cm/s) was calculated using the following formula: Papp = (dCr/dt) x Vr / (A x C0). Herein, dCr/dt represents the cumulative concentration of the compound at the receiving end per unit time (µM/s); Vr is the volume of the solution at the receiving end (with solution volumes at the apical and basolateral ends being 0.075 mL and 0.250 mL, respectively); A is the relative surface area of the cell monolayer (0.143 cm^2); C0 is the initial concentration of the test substance at the dosing end (µM) or the peak area ratio of the reference substance. The efflux ratio was calculated using the following formula: ER = Papp (BA)/ Papp (AB). Table 7: Permeability test results of compounds

in vitro [1] = settings: cynomolgus monkey, plasma
in vitro [2] = settings: human, microsomes
in vitro [3] = settings: rat, plasma
in vitro [4] = settings: human, plasma
in vivo = settings: cynomolgus monkey, po, 1 mg/kg
[5] = Permeability test (MDR1-MDCKII monolayer, bidirectional transport); assay type: in vitro ADME; settings: dog; for efflux ratio at 2.5 h, 2 µM: MDCK-MDR1, pH 7.4, ER = Papp (BA)/ Papp (AB); for Papp A→B at 2.5 h, 2 µM: MDCK-MDR1, pH 7.4, pH 7.40, 2.5 hours, A to B, read-out: Apparent permeability coefficient (Papp (AB), 10^-6 cm/s)
Procedure: as §4, §5

[6] = system: patients with resistant hypertension; settings: cited from earlier work
[7] = 2 mg dose, patients with resistant hypertension

SMILES	IC50 (human CYP11B1) [nM]	IC50 (human CYP11B2) [nM]	Efflux ratio (ER) (MDR1-MDCKII cells)	Apparent permeability coefficient (Papp (AB), 10^-6 cm/s) (MDR1-MDCKII cells)	further results
CCC(=NOC)NC1CCCc2c(-c3ccc4c(c3)CCC(=O)N4C)cncc21 (single isomer, unassigned) [Compound 005]	1420	19.5	0.70	23.1 10^-6 cm/s	–
CCC(=O)NC1CCOc2c(-c3cc4c(s3)N(C)C(=O)CC4)cncc21 (single isomer, unassigned) [Compound 046]	1570	13.3	1.17	18.0 10^-6 cm/s	–
Cn1c(=O)ccc2cc(-c3cncc4c3CCC[C@H]4NC(=O)c3ncccc3Cl)ccc21 (single isomer, unassigned) [Compound 014]	–	20.6	–	–	–
CCC(=O)NC1CCCc2c(-c3cc(F)c4c(ccc(=O)n4C)c3)cncc21 (single isomer, unassigned) [Compound 018]	3810	20.7	–	–	fraction unbound at 4 h, 2 µM (in vitro [1]): 0.205; CLint scaled at 1 µM (in vitro [2]): < 8.6 mL/min/kg; fraction unbound at 4 h, 2 µM (in vitro [3]): 0.08; fraction unbound at 4 h, 2 µM (in vitro [4]): 0.191; AUC(0-t) at 24 h (in vivo): 7.59 µM·h; Cmax (in vivo): 1310 nM; half-life (in vivo): 5.35 h; efflux ratio at 2.5 h, 2 µM [5]: 1.32; Papp A→B at 2.5 h, 2 µM [5]: 24.6 ×10⁻⁶ cm/s
CCC(=O)N[C@@H]1CCCc2c(-c3ccc4c(c3)CCC(=O)N4C)cncc21 [Baxdrostat]	–	–	–	–	office systolic and diastolic blood pressure [6, 7]: demonstrated efficacy; safety and tolerability [6, 7]: favorable safety and tolerability profiles; aldosterone secretion levels ([6]; clinical studies): dose-dependent reduction; blood pressure ([6]; clinical studies): dose-dependent reduction; blood pressure reduction ([6]; phase 2 trials): significant blood pressure reduction; cortisol levels ([6]; phase 2 trials): no impact on cortisol levels; elevated blood potassium ([6]; phase 2 trials): rare occurrence of elevated blood potassium; steroid precursor accumulation ([6]; phase 2 trials): absence of steroid precursor accumulation
CCC(=O)NC1CCCc2c(-c3cc(F)c4c(c3)OCC(=O)N4C)cncc21 (single isomer, unassigned) [Compound 031]	4740	22.6	0.89	20.0 10^-6 cm/s	–
CCC(=O)NC1CCOc2c(-c3cc4ccc(=O)n(C)c4s3)cncc21 (single isomer, unassigned) [Compound 045]	34900	42.7	1.30	16.7 10^-6 cm/s	–
CCC(=O)NC1CCCc2c(-c3ccc4c(c3)OCC(=O)N4C)cncc21 (single isomer, unassigned) [Compound 010]	6880	71.5	–	–	–
CCS(=O)(=O)N1CC(Oc2cncc(-c3ccc4c(c3)OCC(=O)N4C)c2)C1 [Compound 016]	–	63.6	–	–	–
CCC(=O)NC1CCN(C2CCCc3c(-c4ccc5c(ccc(=O)n5C)c4)cncc32)CC1 (single isomer, unassigned) [Compound 030]	2180	48.7	–	–	–
CCC(=O)NC1CCCc2c(-c3ccc4c(ccc(=O)n4C)c3Cl)cncc21 (single isomer, unassigned) [Compound 042]	–	41	–	–	–
CCC(=O)NC1CCCc2c(-c3ccc4c(c3)C3CC3C(=O)N4C)cncc21 (single isomer, unassigned) [Compound 025]	–	65.5	–	–	–
CCC(=O)NC1CCCc2c(-c3ccc4c(c3)OCC(=O)N4C)cncc21 (single isomer, unassigned) [Compound 011]	6910	59.7	0.89	24.3 10^-6 cm/s	–
CCC(=O)NC1CCOc2c(-c3ccc4c(ccc(=O)n4C)c3)cncc21 (single isomer, unassigned) [Compound 044]	19500	32.9	–	–	fraction unbound at 4 h, 2 µM (in vitro [1]): 0.336; fraction unbound at 4 h, 2 µM (in vitro [3]): 0.024; fraction unbound at 4 h, 2 µM (in vitro [4]): 0.295; efflux ratio at 2.5 h, 2 µM [5]: 2.46; Papp A→B at 2.5 h, 2 µM [5]: 11 ×10⁻⁶ cm/s
Cc1noc(C)c1C(=O)NC1CCCc2c(-c3cc4ccc(=O)n(C)c4cc3F)cncc21 (single isomer, unassigned) [Compound 020]	1130	25.5	–	–	fraction unbound at 4 h, 2 µM (in vitro [1]): 0.097; CLint scaled at 1 µM (in vitro [2]): 12.9 mL/min/kg; fraction unbound at 4 h, 2 µM (in vitro [3]): 0.083; fraction unbound at 4 h, 2 µM (in vitro [4]): 0.144; efflux ratio at 2.5 h, 2 µM [5]: 2.47; Papp A→B at 2.5 h, 2 µM [5]: 14 ×10⁻⁶ cm/s
CCC(=O)NC1CCCc2c(-c3nc4ccc(=O)n(C)c4s3)cncc21 (single isomer, unassigned) [Compound 041]	6750	42.2	–	–	–
CCC(=O)NC1CCCc2c(-c3cc4c(cc3F)N(C)C(=O)CO4)cncc21 (single isomer, unassigned) [Compound 032]	5650	30.1	0.86	22.6 10^-6 cm/s	–
Cc1noc(C)c1C(=O)NC1CCCc2c(-c3ccc4c(ccc(=O)n4C)c3)cncc21 (single isomer, unassigned) [Compound 015]	–	31.8	–	–	–
CCC(=O)NC1CCc2c(-c3ccc4c(ccc(=O)n4C)c3)cncc21 (single isomer, unassigned) [Compound 048]	2490	7.02	–	–	–
